As usually defined, the melting point is the temperature, or range, at which the solid turns liquid.

Where a name gives a salt, the structure may show the parent alone.

The results in this text go back to patent US6685617B1, “Inhibitors of α4β1 mediated cell adhesion” (Pharmacia & Upjohn Company, priority 1998, dated 2004).

The target in series [1] is T1, α4β1 integrin (Jurkat T-cell adhesion to IL-1 stimulated endothelial cell monolayers) (Homo sapiens, UniProt P05556+P13612).
T1 construct: a T-cell line, Jurkat, known to express the α4β1 integrin; host or cells: Jurkat T-cell line
T1 sequence (P13612 34-1032): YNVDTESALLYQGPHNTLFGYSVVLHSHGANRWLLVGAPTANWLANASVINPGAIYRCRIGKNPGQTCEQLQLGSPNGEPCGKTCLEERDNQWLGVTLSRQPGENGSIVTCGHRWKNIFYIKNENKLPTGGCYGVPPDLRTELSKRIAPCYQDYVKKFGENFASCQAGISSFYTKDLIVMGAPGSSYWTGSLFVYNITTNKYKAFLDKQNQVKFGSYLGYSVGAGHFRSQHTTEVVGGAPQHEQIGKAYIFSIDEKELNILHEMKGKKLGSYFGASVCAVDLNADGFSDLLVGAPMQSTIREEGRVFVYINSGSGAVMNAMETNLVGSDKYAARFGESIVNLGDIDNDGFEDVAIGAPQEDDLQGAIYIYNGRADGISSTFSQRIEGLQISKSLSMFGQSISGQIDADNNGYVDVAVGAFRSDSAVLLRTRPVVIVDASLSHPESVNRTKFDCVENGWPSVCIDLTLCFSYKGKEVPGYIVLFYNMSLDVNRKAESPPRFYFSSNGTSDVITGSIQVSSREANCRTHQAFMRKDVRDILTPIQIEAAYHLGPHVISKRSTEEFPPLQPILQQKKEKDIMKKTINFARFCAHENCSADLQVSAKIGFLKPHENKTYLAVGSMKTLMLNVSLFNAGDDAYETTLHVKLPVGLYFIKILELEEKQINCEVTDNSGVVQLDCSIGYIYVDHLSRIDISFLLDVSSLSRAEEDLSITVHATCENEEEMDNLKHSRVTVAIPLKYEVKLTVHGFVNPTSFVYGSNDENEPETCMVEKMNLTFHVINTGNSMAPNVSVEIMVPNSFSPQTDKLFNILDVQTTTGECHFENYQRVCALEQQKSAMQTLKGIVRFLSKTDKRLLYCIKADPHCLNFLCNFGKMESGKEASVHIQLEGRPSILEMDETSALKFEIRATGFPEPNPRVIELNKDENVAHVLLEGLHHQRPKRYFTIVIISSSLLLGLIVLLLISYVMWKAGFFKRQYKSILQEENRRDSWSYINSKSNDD
T1 sequence (P05556 21-798): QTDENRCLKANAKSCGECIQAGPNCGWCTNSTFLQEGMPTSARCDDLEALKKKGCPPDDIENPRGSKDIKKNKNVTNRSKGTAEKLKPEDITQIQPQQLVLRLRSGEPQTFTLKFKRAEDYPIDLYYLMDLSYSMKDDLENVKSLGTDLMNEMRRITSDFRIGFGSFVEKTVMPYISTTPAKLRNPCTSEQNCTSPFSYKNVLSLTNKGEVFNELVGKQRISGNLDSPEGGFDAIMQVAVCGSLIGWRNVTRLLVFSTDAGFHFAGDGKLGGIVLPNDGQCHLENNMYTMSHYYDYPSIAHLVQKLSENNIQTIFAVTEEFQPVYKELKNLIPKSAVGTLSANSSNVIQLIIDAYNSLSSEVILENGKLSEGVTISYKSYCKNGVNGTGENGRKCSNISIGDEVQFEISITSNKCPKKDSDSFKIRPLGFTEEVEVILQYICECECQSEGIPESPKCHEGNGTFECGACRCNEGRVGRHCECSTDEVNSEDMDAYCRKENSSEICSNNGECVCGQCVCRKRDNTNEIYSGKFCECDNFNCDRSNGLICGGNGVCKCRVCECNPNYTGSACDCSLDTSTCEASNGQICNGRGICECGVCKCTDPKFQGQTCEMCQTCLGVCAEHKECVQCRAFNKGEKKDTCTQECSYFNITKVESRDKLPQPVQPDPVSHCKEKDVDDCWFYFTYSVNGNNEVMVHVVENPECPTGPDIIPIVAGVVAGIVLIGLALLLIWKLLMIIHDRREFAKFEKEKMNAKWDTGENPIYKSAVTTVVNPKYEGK
As to the kind of experiment: Jurkat-endothelial cell adhesion assay (Jurkat EC). Type of series: cell-based. Particulars: Jurkat cells on IL-1 stimulated human umbilical vein endothelial cells; read-out: JK/EC (Jurkat EC Assay IC50 value range). In a few lines:
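Adhesion was expressed as percent of compound-free fluorescence after 20 min at 37° C (following 5 min settling on ice) of BCECF-loaded Jurkat T cells on washed HUVEC monolayers. The endothelium, passage 6 or lower, had received 0.1 ng/ml recombinant IL-1 for 4 hr at 37° C; compound was premixed with the T cells, typically at 100, 20, 5 and 1.25 μM.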

Series [2] has as its target T2, α4β1 integrin (Jurkat cell adhesion to immobilized CS-1 derived peptide CLHPGEILDVPST) (Homo sapiens, UniProt P05556+P13612).
T2 construct: 100 μl of Jurkat cells (2.5×10^6 cells/ml) in DMEM plus BSA; host or cells: Jurkat T-cell line
The experiment in a line: Jurkat-CS-1 assay. Type of series: cell-based. The following applies: Jurkat cells on CS-1 peptide coated plates; read-out: JK/CS-1 (Jurkat CS-1 Assay IC50 value range). In short, it runs like this: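 CS-1 peptide was SPDP-crosslinked onto HSA-coated plates and blocked with BSA. Jurkat cells (2.5×10^6 cells/ml) in DMEM/BSA were mixed with compound, generally at 100, 20, 5 and 1.25 μM, and allowed to adhere for 1 hr at 37° C. Bound cells were fixed, stained with toluidine blue and quantified by OD590.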

T2 sequence (P13612 34-1032): as the sequence (P13612 34-1032) above
T2 sequence (P05556 21-798): as the sequence (P05556 21-798) above

In turn, `C[C@@H](c1ccccc1)N1[C@H](C(=O)O)C[C@H]1C(=O)N[C@@H](Cc1ccc(NC(=O)c2c(Cl)cccc2Cl)cc1)C(=O)O` (as salt: salt) [Example 129, [2S-[1(R*),2α,4β(R*)]]-4-[[[1-Carboxy-2-[4-[(2,6-dichlorobenzoyl)amino]phenyl]ethyl]-amino]carbonyl]-1-(1-phenylethyl)-2-azetidinecarboxylic Acid Dilithium Salt] yielded a melting point of 270 °C.
Take `COC(=O)[C@H](Cc1ccc(NC(=O)c2c(Cl)cccc2Cl)cc1)NC(=O)[C@@H]1CCN1C(=O)OC(C)(C)C` [Example 142, [2S-(R*,R*)]-2-[[[1-[4-[(2,6-Dichlorobenzoyl)amino]phenylmethyl]-2-methoxy-2-oxoethyl]amino]carbonyl]-1-azetidinecarboxylic Acid 1-(1,1-Dimethyl)ethyl Ester]: the melting point is 106 to 108 °C. In addition, the IC50 in series [1] was at least 1000 nM. In addition, in series [2], the IC50 was at least 750 nM.
On to `CCOC(=O)N1CSC[C@@H]1C(=O)N[C@@H](Cc1ccc(NC(=O)c2c(Cl)cccc2Cl)cc1)C(=O)O` (relative stereo) [Example 12, [S-(R*,R*)]-4-[[[1-Carboxy-2-[4-[(2,6-dichlorobenzoyl)amino]phenyl]ethyl]amino]carbonyl]-3-thiazolidinecarboxylic Acid 3-Ethyl Ester], for which the melting point lay within 118 to 121 °C. The IC50 in series [1] was at most 250 nM. In series [2], the IC50 was at most 50 nM.
Regarding `COC(=O)[C@H](Cc1ccc(NC(=O)c2c(Cl)cccc2Cl)cc1)NC(=O)[C@H]1CSCN1C(=O)N(C)CCc1ccccn1` [Example 54, 4-[(2,6-Dichlorobenzoyl)amino]-N-[[(4S)-3-[[methyl[2-(2-pyridinyl)ethyl]amino]carbonyl]-4-thiazoidinyl]carbonyl]-L-phenylalanine Methyl Ester], the melting point is 80 to 90 °C (dec.). Also, the IC50 in series [1] was at least 1000 nM. Besides, the IC50 in series [2] was in the range of 50 to 750 nM.
`CS(=O)(=O)N1CSC[C@@H]1C(=O)N[C@@H](Cc1ccc(OCc2c(Cl)cccc2Cl)cc1)C(N)=O` [Example 159] registered a melting point of 228 to 230 °C. For the same compound, the IC50 in series [1] was at least 1000 nM. For the same compound, the IC50 in series [2] was at least 750 nM.
In the same order, the values of `CCOC(=O)N1[C@@H](C(=O)N[C@@H](Cc2ccc(NC(=O)c3c(Cl)cccc3Cl)cc2)C(=O)OC)C[C@@H]1C(=O)OC` [Example 140, [2R-(2α,4β(S*)]-4-[[[1-[[4-[(2,6-Dichlorobenzoyl)amino]phenyl]methyl]-2-methoxy-2-oxoethyl]amino]carbonyl]-1,2-azetidinedicarboxylic Acid 1-Ethyl-2-methyl Diester] are 97 to 99 °C, at least 1000 nM and at least 750 nM.
As to `COC(=O)[C@H](Cc1ccc(NC(=O)c2c(Cl)cccc2Cl)cc1)NC(=O)[C@@H]1CCN1` [Example 158, [2S-(R*,R*)]-2-[[[1-[[4-[(2,6-Dichlorobenzoyl)amino]phenyl]methyl]-2-methoxy-2-oxoethyl]amino]carbonyl]azetidine], the melting point lay in the range of 113 to 115 °C. In series [1], the IC50 is at least 1000 nM. For the same compound, in series [2], the IC50 is at least 750 nM.
In the case of `COC(=O)[C@H](Cc1ccc(OCc2c(Cl)cccc2Cl)cc1)NC(=O)[C@H]1CSCN1C(=O)OCCN1CCOCC1` (relative stereo) [Example 36, [S-(R*,R*)]-4-[[[1-[4-[(2,6-Dichlorophenyl)methoxy]phenyl]methyl]-2-methoxy-2-oxoethyl]amino]carbonyl]-3-thiazolidinecarboxylic Acid 3-[2-(4-Morpholinyl)ethyl]ester], the melting point lay within 138 to 140 °C. The IC50 in series [1] was at most 250 nM. Also, the IC50 in series [2] is at most 50 nM.
Compound `COC(=O)[C@H](Cc1ccc(OCc2c(Cl)cccc2Cl)cc1)NC(=O)[C@H]1CSCN1C(=O)OC1CCOC1` (relative stereo) [Example 156, [S-(R*,R*)]-4-[[[1-[[4-[(2,6-Dichlorophenyl)methoxy]phenyl]methyl]-2-methoxy-2-oxoethyl]amino]carbonyl]-3-thiazolidinecarboxylic Acid 3-(3-Tetrahydrofuranyl)ester] returned a melting point of 125 to 126.5 °C. Moreover, the IC50 in series [1] is at least 1000 nM. For the same compound, the IC50 in series [2] was 50 to 750 nM.
In the same order, the values of `COC(=O)[C@H](Cc1ccc(OCc2c(Cl)cccc2Cl)cc1)NC(=O)[C@H]1CSCN1C(=O)OCc1ccccn1` (relative stereo) [Example 38, [S-(R*,R*)]-4-[[[1-[4-[(2,6-Dichlorophenyl)methoxy]phenyl]methyl]-2-methoxy-2-oxoethyl]amino]carbonyl]-3-thiazolidinecarboxylic Acid 3-[(2-Pyridinyl)methyl]ester] are 123 to 125 °C, at least 1000 nM and at least 750 nM.
In the case of `COC(=O)[C@H](Cc1ccc(NC(=O)c2c(Cl)cccc2Cl)cc1)NC(=O)[C@@H]1CSC(C)(C)N1C(=O)OC(C)(C)C` (relative stereo) [Example 72, [R-(R*,S*)]-4-[[[1-[[4-[(2,6-Dichlorobenzoyl)amino]phenyl]methyl]-2-methoxy-2-oxo-ethyl]amino]carbonyl]-2,2-dimethyl-3-thiazolidinecarboxylic Acid 3-(1,1-Dimethylethyl)ester], the IC50 was at least 1000 nM in series [1] and at least 750 nM in series [2].
In the same order, the values of `O=C(O)CC1(CC(=O)N2CCC[C@H]2C(=O)N[C@@H](Cc2ccc(NC(=O)c3c(Cl)cccc3Cl)cc2)C(=O)O)CCCC1` [Example 225] are at least 1000 nM and 50 to 750 nM.
On the same counts, the results for `COC(=O)[C@H](Cc1ccc(NC(=O)c2c(Cl)cccc2Cl)cc1)NC(=O)[C@@H]1CSCCN1` [Example 97] are at least 1000 nM and at least 750 nM.
On the same counts, the results for `CCOC(=O)N1CSC[C@@H]1C(=O)N[C@@H](Cc1ccc(NC(=O)c2c(Cl)cccc2Cl)cc1)C(=O)OC` (relative stereo) [Example 4, [S-(R*,R*)]-4-[[[1-[[4-[(2,6-Dichlorobenzoyl)amino]phenyl]methyl]-2-methoxy-2-oxoethyl]amino]carbonyl]-3-thiazolidinecarboxylic Acid 3-Ethyl Ester] are at most 250 nM and at most 50 nM.
With `COCCC(=O)N1CCCC(C(=O)N[C@@H](Cc2ccc(NC(=O)c3c(Cl)cccc3Cl)cc2)C(=O)O)C1` (stereo partly drawn) [Example 173, 4-[(2,6-Dichlorobenzoyl)amino]-N-[[1-(3-methoxy-1-oxopropyl)-3-piperidinyl]carbonyl]-L-phenylalanine], the IC50 was at most 250 nM in series [1] and 50 to 750 nM in series [2].
Regarding `COC(=O)[C@H](Cc1ccc(NC(=O)c2c(Cl)cccc2Cl)cc1)NC(=O)[C@@H]1N(C(C)=O)C(C)(C)SC1(C)C` [Example 87, N-[[(4S)-3-Acetyl-2,2,5,5-tetramethyl-4-thiazolidinyl]carbonyl]-4-[(2,6-dichlorobenzoyl)amino]-L-phenylalanine Methyl Ester], the IC50 in series [1] is at least 1000 nM; in series [2], at least 750 nM.
Regarding “[S]-3-[[[1-[[4-[(2,6-Dichlorobenzoyl)amino]phenyl]methyl]-2-methoxy-2-oxoethyl]amino]-carbonyl]-1-azetidinecarboxylic Acid 1-(1,1-Dimethyl)ethyl Ester [Example 145]”, the IC50 in series [1] is at least 1000 nM; in series [2] it was at least 750 nM.
For the compound `O=C(Nc1ccc(C[C@H](NC(=O)[C@H]2CSCN2C(=O)C2CCCO2)C(=O)O)cc1)c1c(Cl)cccc1Cl` (some centres unmarked) [Example 266], the IC50 was at most 250 nM in series [1] and at most 50 nM in series [2].
